Data as given in publication PMC4063187 (Journal of the American Chemical Society, 2014).
Like-named read-outs stand apart in the source and are kept apart here.

Tests used:
[1] = molecular target: T1, ecDHFR (wild-type, l-DHFR) (Escherichia coli, UniProt P0ABQ4); assay: steady-state absorbance at […] nm; format: biochemical; conditions: read-out: 25 °C, pH 7 / l-DHFR, MTEN buffer pH 7, 25 °C
T1 sequence (P0ABQ4 1-159): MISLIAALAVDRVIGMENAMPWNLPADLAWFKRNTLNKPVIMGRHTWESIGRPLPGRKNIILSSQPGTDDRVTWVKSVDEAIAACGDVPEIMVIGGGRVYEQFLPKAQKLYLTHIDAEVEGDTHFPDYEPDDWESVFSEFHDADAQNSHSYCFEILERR

[2] = molecular target: T1, ecDHFR (wild-type, l-DHFR); assay: stopped-flow tryptophan fluorescence quenching, koff/kon; format: binding
[3] = molecular target: T1, ecDHFR (wild-type, l-DHFR); assay: stopped-flow fluorescence; format: binding

Nc1nc2c(c(=O)[nH]1)N=C(CNc1ccc(C(=O)N[C@@H](CCC(=O)O)C(=O)O)cc1)CN2 [DHF]
Km ([1]; 100 μM NADPH): 0.53 ± 0.04 µM

Nc1nc2ncc(CNc3ccc(C(=O)N[C@@H](CCC(=O)O)C(=O)O)cc3)nc2c(=O)[nH]1 [FA]
Kd [2]: 3.22 ± 0.09 µM

NC(=O)C1=CN([C@@H]2O[C@H](COP(=O)(O)OP(=O)(O)OC[C@H]3O[C@@H](n4cnc5c(N)ncnc54)[C@H](OP(=O)(O)O)[C@@H]3O)[C@@H](O)[C@H]2O)C=CC1 [NADPH]
Kd [3]: 180 ± 90 nM | Km ([1]; 100 μM DHF): 7.2 ± 0.8 µM
